Biological target: T1, ΔF508-CFTR (Homo sapiens, UniProt P13569, DEL508-508)
T1 construct: expressed in transfected cells
Assay: Membrane potential optical (FRET/VIPR) assay, identification of potentiator compounds
Format: cell-based
Details: Table 3, assay not given; for % Activity: relative efficacy
Method in brief: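 Double-addition potentiator screen: compound delivered in gluconate-substituted Cl^--free medium, membrane potential followed via CC2-DMPE/DiSBAC2(3) FRET on VIPR. Cells were ΔF508-CFTR-expressing NIH3T3 mouse fibroblasts, held 2 h at 37° C. then 24 h at 27° C. before assay.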

T1 sequence (P13569 with tags, fused parts or gaps DEL508-508): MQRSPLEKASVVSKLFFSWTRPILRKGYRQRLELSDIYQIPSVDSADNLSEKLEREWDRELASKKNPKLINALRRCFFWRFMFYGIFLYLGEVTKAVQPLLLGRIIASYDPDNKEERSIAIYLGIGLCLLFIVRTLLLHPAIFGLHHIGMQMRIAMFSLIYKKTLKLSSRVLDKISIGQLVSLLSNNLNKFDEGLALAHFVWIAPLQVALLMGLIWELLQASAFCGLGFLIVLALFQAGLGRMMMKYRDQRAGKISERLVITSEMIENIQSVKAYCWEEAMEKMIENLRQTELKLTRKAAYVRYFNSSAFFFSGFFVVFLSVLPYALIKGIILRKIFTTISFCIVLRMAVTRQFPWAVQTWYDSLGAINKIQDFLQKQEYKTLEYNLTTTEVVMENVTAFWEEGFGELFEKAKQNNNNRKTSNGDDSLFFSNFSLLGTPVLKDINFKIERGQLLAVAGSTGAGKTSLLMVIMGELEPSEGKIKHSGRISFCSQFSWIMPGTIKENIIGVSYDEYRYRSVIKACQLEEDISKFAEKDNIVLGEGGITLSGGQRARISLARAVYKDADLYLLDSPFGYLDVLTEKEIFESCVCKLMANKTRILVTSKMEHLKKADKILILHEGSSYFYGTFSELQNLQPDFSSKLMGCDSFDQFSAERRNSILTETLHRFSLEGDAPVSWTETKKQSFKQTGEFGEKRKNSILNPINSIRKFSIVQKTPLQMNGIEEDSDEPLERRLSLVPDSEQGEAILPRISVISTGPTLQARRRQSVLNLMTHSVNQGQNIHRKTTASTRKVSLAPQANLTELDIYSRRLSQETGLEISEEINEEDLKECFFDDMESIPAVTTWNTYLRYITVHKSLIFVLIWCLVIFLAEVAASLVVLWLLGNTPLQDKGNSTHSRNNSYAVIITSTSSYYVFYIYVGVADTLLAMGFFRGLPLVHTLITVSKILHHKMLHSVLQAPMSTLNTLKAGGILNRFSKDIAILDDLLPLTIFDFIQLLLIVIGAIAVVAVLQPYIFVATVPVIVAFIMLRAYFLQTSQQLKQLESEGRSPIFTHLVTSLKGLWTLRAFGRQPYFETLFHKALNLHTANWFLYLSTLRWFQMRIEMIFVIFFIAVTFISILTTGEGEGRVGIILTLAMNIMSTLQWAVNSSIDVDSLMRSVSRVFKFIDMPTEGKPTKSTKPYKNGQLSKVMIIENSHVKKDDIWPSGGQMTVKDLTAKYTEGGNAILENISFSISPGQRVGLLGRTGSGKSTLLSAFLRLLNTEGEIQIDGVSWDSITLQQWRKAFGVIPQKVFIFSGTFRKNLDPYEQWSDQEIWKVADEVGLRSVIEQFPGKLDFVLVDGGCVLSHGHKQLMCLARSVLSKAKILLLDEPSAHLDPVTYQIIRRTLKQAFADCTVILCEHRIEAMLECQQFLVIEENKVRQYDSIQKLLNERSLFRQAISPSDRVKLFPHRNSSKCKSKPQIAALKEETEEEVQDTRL

| Compound | EC50 [µM] | % Activity |
| --- | --- | --- |
| O=C(Nc1ccccc1-c1cccc(OC(F)(F)F)c1)c1c[nH]c2ccccc2c1=O [Compound 253, 4-oxo-N-[2-[3-(trifluoromethoxy)phenyl]phenyl]-1H-quinoline-3-carboxamide] | < 10 | ++ (between 25% to 100%) |
| O=C(Nc1cc2[nH]ccc2cc1F)c1c[nH]c2ccc(F)cc2c1=O [Compound 254, 6-fluoro-N-(5-fluoro-1H-indol-6-yl)-4-oxo-1H-quinoline-3-carboxamide] | < 10 | ++ (between 25% to 100%) |
| CC(C)(C)c1cc(C(C)(C)C)c(NC(=O)c2c[nH]c3ccc(S(=O)(=O)N4CCCC4)cc3c2=O)cc1O [Compound 255, N-(5-hydroxy-2,4-ditert-butyl-phenyl)-4-oxo-6-pyrrolidin-1-ylsulfonyl-1H-quinoline-3-carboxamide] | < 10 | ++ (between 25% to 100%) |
| O=C(Nc1ccc2[nH]nnc2c1)c1c[nH]c2ccccc2c1=O [Compound 256, N-(1H-benzotriazol-5-yl)-4-oxo-1H-quinoline-3-carboxamide] | 25 to 60 | + (<25%) |
| Cc1cc(NC(=O)c2c[nH]c3ccccc3c2=O)ccc1F [Compound 257, N-(4-fluoro-3-methyl-phenyl)-4-oxo-1H-quinoline-3-carboxamide] | < 10 | ++ (between 25% to 100%) |
| O=C(Nc1ccc2c(c1)NCC2)c1c[nH]c2ccccc2c1=O [Compound 258, N-Indolin-6-yl-4-oxo-1H-quinoline-3-carboxamide] | < 10 | ++ (between 25% to 100%) |
| CCC(C)c1c[nH]c2cc(NC(=O)c3c[nH]c4ccccc4c3=O)ccc12 (centres unmarked) [Compound 259, 4-oxo-N-(3-sec-butyl-1H-indol-6-yl)-1H-quinoline-3-carboxamide] | < 10 | ++ (between 25% to 100%) |
| CC(C)(C)c1ccc(N)cc1NC(=O)c1c[nH]c2ccccc2c1=O [Compound 260, N-(5-Amino-2-tert-butyl-phenyl)-4-oxo-1H-quinoline-3-carboxamide] | < 10 | ++ (between 25% to 100%) |
| Cc1ccc(-c2ccccc2NC(=O)c2c[nH]c3ccccc3c2=O)cc1C [Compound 261, N-[2-(3,4-dimethylphenyl)phenyl]-4-oxo-1H-quinoline-3-carboxamide] | < 10 | ++ (between 25% to 100%) |
| O=C1CSc2ccc(NC(=O)c3c[nH]c4ccccc4c3=O)cc2N1 [Compound 262, 1,4-dihydro-N-(3,4-dihydro-3-oxo-2H-benzo[b][1,4]thiazin-6-yl)-4-oxoquinoline-3-carboxamide] | < 10 | ++ (between 25% to 100%) |
| CCc1cc(Br)ccc1NC(=O)c1c[nH]c2ccccc2c1=O [Compound 263, N-(4-bromo-2-ethyl-phenyl)-4-oxo-1H-quinoline-3-carboxamide] | < 10 | ++ (between 25% to 100%) |
| CCOc1ccc(OCC)c(NC(=O)c2c[nH]c3ccccc3c2=O)c1 [Compound 264, N-(2,5-diethoxyphenyl)-4-oxo-1H-quinoline-3-carboxamide] | 10 to 25 | ++ (between 25% to 100%) |
| O=C(Nc1ccccc1Cc1ccccc1)c1c[nH]c2ccccc2c1=O [Compound 265, N-(2-benzylphenyl)-4-oxo-1H-quinoline-3-carboxamide] | < 10 | ++ (between 25% to 100%) |
| CC(C)(C)c1cc(C(F)(F)F)c(NC(=O)c2c[nH]c3ccccc3c2=O)cc1O [Compound 266, N-[5-hydroxy-4-tert-butyl-2-(trifluoromethyl)phenyl]-4-oxo-1H-quinoline-3-carboxamide] | < 10 | ++ (between 25% to 100%) |
| O=C(Nc1ccc(Oc2ccccc2)cc1)c1c[nH]c2ccccc2c1=O [Compound 267, 4-oxo-N-(4-phenoxyphenyl)-1H-quinoline-3-carboxamide] | < 10 | ++ (between 25% to 100%) |
| CC(C)(C)c1ccc(NC(=O)c2c[nH]c3ccccc3c2=O)cc1S(N)(=O)=O [Compound 268, 4-oxo-N-(3-sulfamoyl-4-tert-butyl-phenyl)-1H-quinoline-3-carboxamide] | 10 to 25 | ++ (between 25% to 100%) |
| CCOC(=O)Nc1ccc(C(C)C)c(NC(=O)c2c[nH]c3ccccc3c2=O)c1 [Compound 269, [4-isopropyl-3-[(4-oxo-1H-quinolin-3-yl)carbonylamino]phenyl]aminoformic acid ethyl ester] | < 10 | ++ (between 25% to 100%) |
| N#Cc1cc2ccc(NC(=O)c3c[nH]c4ccccc4c3=O)cc2[nH]1 [Compound 270, N-(2-cyano-1H-indol-6-yl)-4-oxo-1H-quinoline-3-carboxamide] | < 10 | ++ (between 25% to 100%) |
| CC(C)(C)c1ccc(NC(=O)c2c[nH]c3ccccc3c2=O)cc1N [Compound 271, N-(3-amino-4-tert-butyl-phenyl)-4-oxo-1H-quinoline-3-carboxamide] | < 10 | ++ (between 25% to 100%) |

| Compound | EC50 [µM] | % Activity |
| --- | --- | --- |
| O=C(Nc1cc(NS(=O)(=O)CCN2CCOCC2)cc(C(F)(F)F)c1)c1c[nH]c2ccccc2c1=O [Compound 272, N-[3-(2-morpholinoethylsulfonylamino)-5-(trifluoromethyl)phenyl]-4-oxo-1H-quinoline-3-carboxamide] | 10 to 25 | ++ (between 25% to 100%) |
| CC(C)(C)OC(=O)NC1CCCc2ccc(NC(=O)c3c[nH]c4ccccc4c3=O)cc21 (centres unmarked) [Compound 273, [7-[(4-oxo-1H-quinolin-3-yl)carbonylamino]tetralin-1-yl]aminoformic acid tert-butyl ester] | < 10 | +++ (>100%) |
| CC(C)(C)c1cc2cc[nH]c2cc1NC(=O)c1c[nH]c2ccc(S(=O)(=O)N3CCCC3)cc2c1=O [Compound 274, 4-oxo-6-pyrrolidin-1-ylsulfonyl-N-(5-tert-butyl-1H-indol-6-yl)-1H-quinoline-3-carboxamide] | < 10 | ++ (between 25% to 100%) |
| CC(C)(C)c1ccc(NC(=O)c2cnc3ccccc3c2OCc2ccccc2)cc1O [Compound 275, 4-Benzyloxy-N-(3-hydroxy-4-tert-butyl-phenyl)-quinoline-3-carboxamide] | 10 to 25 | ++ (between 25% to 100%) |
| O=C(Nc1ccc(S(=O)(=O)N2CCOCC2)cc1)c1c[nH]c2ccccc2c1=O [Compound 276, N-(4-morpholinosulfonylphenyl)-4-oxo-1H-quinoline-3-carboxamide] | 10 to 25 | ++ (between 25% to 100%) |
| O=C(Nc1ccccc1-c1cccc(F)c1)c1c[nH]c2ccccc2c1=O [Compound 277, N-[2-(3-fluorophenyl)phenyl]-4-oxo-1H-quinoline-3-carboxamide] |  | +++ (>100%) |
| O=C(Nc1ccccc1-c1cccc(C(F)(F)F)c1)c1c[nH]c2ccccc2c1=O [Compound 278, 4-oxo-N-[2-[3-(trifluoromethyl)phenyl]phenyl]-1H-quinoline-3-carboxamide] | < 10 | ++ (between 25% to 100%) |
| CSc1ccccc1-c1ccccc1NC(=O)c1c[nH]c2ccccc2c1=O [Compound 279, N-[2-(2-methylsulfanylphenyl)phenyl]-4-oxo-1H-quinoline-3-carboxamide] |  | ++ (between 25% to 100%) |
| O=C(Nc1ccc2ncccc2c1)c1c[nH]c2ccccc2c1=O [Compound 280, 4-oxo-N-(6-quinolyl)-1H-quinoline-3-carboxamide] | 25 to 60 | + (<25%) |
| Cc1ccc(NC(=O)c2c[nH]c3ccccc3c2=O)c(C)c1 [Compound 281, N-(2,4-dimethylphenyl)-4-oxo-1H-quinoline-3-carboxamide] | < 10 | ++ (between 25% to 100%) |
| CCc1ccc(N)cc1NC(=O)c1c[nH]c2ccccc2c1=O [Compound 282, N-(5-amino-2-ethyl-phenyl)-4-oxo-1H-quinoline-3-carboxamide] |  | ++ (between 25% to 100%) |
| COc1cccc(-c2ccccc2NC(=O)c2c[nH]c3ccccc3c2=O)c1 [Compound 283, N-[2-(3-methoxyphenyl)phenyl]-4-oxo-1H-quinoline-3-carboxamide] | < 10 | +++ (>100%) |
| O=C(Nc1ccc2cn[nH]c2c1)c1c[nH]c2ccccc2c1=O [Compound 284, N-(1H-indazol-6-yl)-4-oxo-1H-quinoline-3-carboxamide] | 10 to 25 | ++ (between 25% to 100%) |
| O=C(Nc1ccccc1-c1cccc(F)c1F)c1c[nH]c2ccccc2c1=O [Compound 285, N-[2-(2,3-difluorophenyl)phenyl]-4-oxo-1H-quinoline-3-carboxamide] | < 10 | ++ (between 25% to 100%) |
| O=C(Nc1cccc2c1CCCC2)c1c[nH]c2ccccc2c1=O [Compound 286, 1,4-dihydro-N-(1,2,3,4-tetrahydronaphthalen-5-yl)-4-oxoquinoline-3-carboxamide] | < 10 | +++ (>100%) |
| CC1(c2cc(F)c(NC(=O)c3c[nH]c4cccc(O)c4c3=O)cc2O)CCCCC1 [Compound 287, N-[2-fluoro-5-hydroxy-4-(1-methylcyclohexyl)-phenyl]-5-hydroxy-4-oxo-1H-quinoline-3-carboxamide] | < 10 | ++ (between 25% to 100%) |
| COC(=O)Oc1c(NC(=O)c2c[nH]c3ccccc3c2=O)cc(F)cc1C(C)(C)C [Compound 288, N-(5-fluoro-2-methoxycarbonyloxy-3-tert-butyl-phenyl)-4-oxo-1H-quinoline-3-carboxamide] | < 10 | ++ (between 25% to 100%) |
| Cc1ccc(NC(=O)c2c[nH]c3ccccc3c2=O)c(F)c1 [Compound 289, N-(2-fluoro-4-methyl-phenyl)-4-oxo-1H-quinoline-3-carboxamide] | < 10 | ++ (between 25% to 100%) |
